Laboratory results: patent US20100144688A1, “23-Substituted Derivatives of Lupane-type Pentacyclic Triterpenoids” (ADVANCED LIFE SCIENCES, INC., priority 2008, published 2010)

Tests used:
SK-MEL-2 (melanoma) = experiment: MTS cell viability assay, SK-MEL-2; assay type: cell-based
Experimental: (§1) Cells were plated, the evening before treatment, for each treatment on 96-well plates (1×10^4 cells/well) in 100 μL volume per well. Analog solutions were prepared by diluting each test compound in DMSO (10 mM) with the appropriate cell growth media for each individual cell line, or in “Universal Media” if several cell lines were to be assayed in parallel, immediately prior to cell treatment. Universal Media consisted of 5 mL sodium pyruvate (100× liquid stock, MediaTech), 5 mL glucose (100×, 45% liquid stock, MediaTech), 5 mL Penicillin/Streptomycin (100× liquid stock, MediaTech), 10 mL sodium bicarbonate (50× liquid stock, MediaTech), 25 mL Fetal Calf Serum, 1.25 mL insulin (4 mg/mL, Gibco) and 449 mL RPMI media with 2 mM L-glutamine for a total volume of 500 mL.
(§2) Cells were treated by aspirating plating media from each well and adding 80 μL of betulinic acid (control) or each analog solution in serial dilutions to the adherent cells. All treatments were performed in triplicate. Growth media (80 μL) was added to 3 blank wells (no cells) to measure background from the growth media. Growth media alone (no DMSO or test compound) was added to 3 wells containing cells to measure the baseline MTS activity. Vehicle (DMSO) control in serial dilutions, added to cells, was also included to monitor basal toxicity from DMSO. Cells were incubated at 37° C. for 72 h, or 120 h for the OVCAR cell lines. MTS reagent (per 96-well plate) were prepared by combining 2 mL of MTS working solution (Cell Titer Aqueous Non-Radioactive Cell Proliferation Assay, Promega, cat#G1112), 100 μL of 0.92 mg/mL phenazine methosulfate/Dulbecco's PBS and 2.1 mL growth media. MTS reagent (40 μL) was added to each well and incubated at 37° C. for 1.5 to 4 h. Plates were gently shaken by hand until solution in each well appeared homogenous. Absorbances at 490 nm were measured on a Wallac Victor II plate reader at multiple time points following the addition of MTS reagent for each plate. Triplicate absorbance (490 nm) measurements were averaged following background (no cell) subtraction for each drug concentration. Percent Cell Viability was calculated for each drug concentration using the following equation:
(§3) {[Absorbance(analog treated)]/[Absorbance(DMSO treated)]}×100%
(§4) Percent viability (y-axis) was plotted against drug concentration (x-axis) and the resulting graph was used to determine the 50% inhibitory concentration (IC50) for each drug.
(§5) Cytotoxicity dose response for the synthesized triterpenoid derivatives in SK-MEL-2 (melanoma), A-375 (melanoma), Daoy (glioblastoma), LN-229 (glioblastoma), OVCAR-3 (ovarian carcinoma), HT-29 (colon carcinoma), MCF-7 (breast carcinoma) cell lines using the standard MTS assay (described above) is summarized in Table 1.

Daoy (glioblastoma) = experiment: MTS cell viability assay, Daoy; assay type: cell-based; conditions: 72 h incubation
Experimental: as §1, §2, §3, §4, §5

LN-229 (glioblastoma) = experiment: MTS cell viability assay, LN-229; assay type: cell-based
Experimental: as §1, §2, §3, §4, §5

[1] = test system: OVCAR-3 (ovarian carcinoma); experiment: MTS cell viability assay, OVCAR-3; assay type: cell-based; conditions: 120 h for the OVCAR cell lines
Experimental: as §1
Cells were treated by aspirating plating media from each well and adding 80 μL of betulinic acid (control) or each analog solution in serial dilutions to the adherent cells. […] Absorbances at 490 nm were measured on a Wallac Victor II plate reader at multiple time points following the addition of MTS reagent for each plate. Triplicate absorbance (490 nm) measurements were averaged following background (no cell) subtraction for each drug concentration. Percent Cell Viability was calculated for each drug concentration using the following equation:
{[Absorbance(analog treated)]/[Absorbance(DMSO treated)]}×100% […]

A-375 (melanoma) = experiment: MTS cell viability assay, A-375; assay type: cell-based
Experimental: as §1, §2, §3, §4, §5

MCF-7 (breast carcinoma) = experiment: MTS cell viability assay, MCF-7; assay type: cell-based
Experimental: as §1, §2, §3, §4, §5

HT-29 (colon carcinoma) = experiment: MTS cell viability assay, HT-29; assay type: cell-based
Experimental: as §1, §2, §3, §4, §5

[2] = test system: murine melanoma B16 cells; conditions: cited from earlier work
[3] = test system: human colon carcinoma cell lines (Caco-2); conditions: Caco-2, at approximately 60 minutes; cited from earlier work
[4] = test system: human leukemia HL-60 cells; conditions: by decrease in telomerase activity and down-regulation of bcl-2; cited from earlier work
[5] = Homo sapiens, SK-MEL-2, 72 h incubation
[6] = Homo sapiens, LN-229, 72 h incubation
[7] = Homo sapiens, A-375, 72 h incubation
[8] = Homo sapiens, MCF7, 72 h incubation
[9] = Homo sapiens, HT-29, 72 h incubation

Row | Compound | IC50 (SK-MEL-2 (melanoma); [5]) | IC50 (Daoy (glioblastoma); Homo sapiens, Daoy) | other results
1 | C=C(CO)[C@@H]1CC[C@]2(C(=O)O)CC[C@]3(C)[C@H](CC[C@@H]4[C@@]5(C)CCC(N)C(C)(CO)[C@@H]5CC[C@]43C)[C@@H]12 (stereo partly drawn) [Compound 44a] | > 75 µM | > 75 µM | –
2 | C=C(C)[C@@H]1CC[C@]2(CO)CC[C@]3(C)[C@H](CC[C@@H]4[C@@]5(C)CCC(NC(C)=O)C(C)(CO)[C@@H]5CC[C@]43C)[C@@H]12 (stereo partly drawn) [Compound 27] | 64 µM | > 75 µM | –
3 | C=C(C)[C@@H]1CC[C@]2(C(=O)O)CC[C@]3(C)[C@H](CC[C@@H]4[C@@]5(C)CCC(N)C(C)(CO)[C@@H]5CC[C@]43C)[C@@H]12 (stereo partly drawn) [Compound 22] | 36 µM | 38 µM | –
4 | C=C(C)[C@@H]1CC[C@]2(C(=O)O)CC[C@]3(C)[C@H](CC[C@@H]4[C@@]5(C)CC[C@H](O)C(C)(C)[C@@H]5CC[C@]43C)[C@@H]12 [Compound 2, betulinic acid, reference compound] | – | – | IC50 (LN-229 (glioblastoma); 72 h incubation): 61 µM; IC50 (SK-MEL-2 (melanoma); 72 h incubation): 33 µM; IC50 [1]: 59 µM; IC50 (Daoy (glioblastoma)): 31 µM; IC50 (A-375 (melanoma); 72 h incubation): 51 µM; IC50 (MCF-7 (breast carcinoma); 72 h incubation): 50 µM; IC50 (HT-29 (colon carcinoma); 72 h incubation): 37 µM
5 | C=C(C)[C@@H]1CC[C@]2(CO)CC[C@]3(C)[C@H](CC[C@@H]4[C@@]5(C)CCC(N)C(C)(CO)[C@@H]5CC[C@]43C)[C@@H]12 (stereo partly drawn) [Compound 23] | 2 µM | 2 µM | IC50 (LN-229 (glioblastoma); [6]): 15 µM; IC50 (A-375 (melanoma); [7]): 5 µM; IC50 (MCF-7 (breast carcinoma); [8]): 5 µM; IC50 (HT-29 (colon carcinoma); [9]): 6 µM
6 | C=C(C)[C@@H]1CC[C@]2(C#N)CC[C@]3(C)[C@H](CC[C@@H]4[C@@]5(C)CCC(=NOC(C)=O)C(C)(COC(C)=O)[C@@H]5CC[C@]43C)[C@@H]12 (stereo partly drawn) [Compound 35] | 24 µM | 31 µM | –
7 | C=C(C)[C@@H]1CC[C@]2(C=NO)CC[C@]3(C)[C@H](CC[C@@H]4[C@@]5(C)CCC(=NO)C(C)(CO)[C@@H]5CC[C@]43C)[C@@H]12 (stereo partly drawn) [Compound 30] | 3 µM | 5 µM | IC50 (LN-229 (glioblastoma); [6]): 16 µM; IC50 (A-375 (melanoma); [7]): 4 µM; IC50 (MCF-7 (breast carcinoma); [8]): < 2 µM; IC50 (HT-29 (colon carcinoma); [9]): 13 µM
8 | C=C(CO)[C@@H]1CC[C@]2(COC(C)=O)CC[C@]3(C)[C@H](CC[C@@H]4[C@@]5(C)CCC(=O)C(C)(COC(C)=O)[C@@H]5CC[C@]43C)[C@@H]12 (stereo partly drawn) [Compound 40c] | 33 µM | 56 µM | –
9 | C=C(C)[C@@H]1CC[C@]2(CO)CC[C@]3(C)[C@H](CC[C@@H]4[C@@]5(C)CCC(=O)C(C)(CO)[C@@H]5CC[C@]43C)[C@@H]12 (stereo partly drawn) [Compound 18b] | > 75 µM | 34 µM | –
10 | C=C(C)[C@@H]1CC[C@]2(C(=O)O)CC[C@]3(C)[C@H](CC[C@@H]4[C@@]5(C)CC[C@H](O)C(C)(CO)[C@@H]5CC[C@]43C)[C@@H]12 (stereo partly drawn) [Compound 1, 23-Hydroxybetulinic acid] | > 75 µM | > 75 µM | growth arrest and apoptotic cell death, B16 ([2]; by increase in reactive oxidative species and dissipation of mitochondrial membrane potential): induces growth arrest and apoptotic cell death; potency against murine melanoma B16 cells ([2]; compared with betulinic acid (2)): increased potency; intracellular concentration (cellular uptake) [3]: 906.7 μM/mg protein; growth arrest and apoptotic cell death, HL-60 [4]: induces growth arrest and apoptotic cell death
11 | C=C(C)[C@@H]1CC[C@]2(COC(C)=O)CC[C@]3(C)[C@H](CC[C@@H]4[C@@]5(C)CCC(=NO)C(C)(CO)[C@@H]5CC[C@]43C)[C@@H]12 (stereo partly drawn) [Compound 17c] | 16 µM | 16 µM | –
12 | C=C(C)[C@@H]1CC[C@]2(CO)CC[C@]3(C)[C@H](CC[C@@H]4[C@@]5(C)CC[C@H](O)C(C)(CO)[C@@H]5CC[C@]43C)[C@@H]12 (stereo partly drawn) [Compound 5, 23-hydroxybetulin, reference compound] | > 75 µM | 65 µM | –
13 | C=C(C)[C@@H]1CC[C@]2(C(=O)O)CC[C@]3(C)[C@H](CC[C@@H]4[C@@]5(C)CCC(=O)C(C)(CO)[C@@H]5CC[C@]43C)[C@@H]12 (stereo partly drawn) [Compound 4, 23-hydroxybetulonic acid, reference compound] | 33 µM | 59 µM | –
14 | C=C(C)[C@@H]1CC[C@]2(C#N)CC[C@]3(C)[C@H](CC[C@@H]4[C@@]5(C)CCC(N)C(C)(CO)[C@@H]5CC[C@]43C)[C@@H]12 (stereo partly drawn) [Compound 37] | 14 µM | 17 µM | –
15 | C=C(C)[C@@H]1CC[C@]2(CO)CC[C@]3(C)[C@H](CC[C@@H]4[C@@]5(C)CCC(=NOC(C)=O)C(C)(COC(C)=O)[C@@H]5CC[C@]43C)[C@@H]12 (stereo partly drawn) [Compound 15b] | 35 µM | 34 µM | –
16 | C=C(C)[C@@H]1CC[C@]2(C=NO)CC[C@]3(C)[C@H](CC[C@@H]4[C@@]5(C)CCC(=NOC(C)=O)C(C)(COC(C)=O)[C@@H]5CC[C@]43C)[C@@H]12 (stereo partly drawn) [Compound 29] | 16 µM | 14 µM | –
17 | C=C(CO)[C@@H]1CC[C@]2(C(=O)O)CC[C@]3(C)[C@H](CC[C@@H]4[C@@]5(C)CC[C@H](O)C(C)(CO)[C@@H]5CC[C@]43C)[C@@H]12 (stereo partly drawn) [Compound 43a] | > 75 µM | > 75 µM | –
18 | C=C(CO)[C@@H]1CC[C@]2(C#N)CC[C@]3(C)[C@H](CC[C@@H]4[C@@]5(C)CCC(=NOC(C)=O)C(C)(COC(C)=O)[C@@H]5CC[C@]43C)[C@@H]12 (stereo partly drawn) [Compound 39d] | 14 µM | 33 µM | melting point: 141 to 143 °C
19 | C=C(C)[C@@H]1CC[C@]2(COC(C)=O)CC[C@]3(C)[C@H](CC[C@@H]4[C@@]5(C)CCC(=O)C(C)(CO)[C@@H]5CC[C@]43C)[C@@H]12 (stereo partly drawn) [Compound 18c] | 29 µM | 16 µM | –
20 | C=C(CO)[C@@H]1CC[C@]2(C#N)CC[C@]3(C)[C@H](CC[C@@H]4[C@@]5(C)CCC(N)C(C)(CO)[C@@H]5CC[C@]43C)[C@@H]12 (stereo partly drawn) [Compound 44d] | 32 µM | 73 µM | –
21 | C=C(CO)[C@@H]1CC[C@]2(CO)CC[C@]3(C)[C@H](CC[C@@H]4[C@@]5(C)CCC(N)C(C)(CO)[C@@H]5CC[C@]43C)[C@@H]12 (stereo partly drawn) [Compound 44b] | 17 µM | 18 µM | –
22 | C=C(CO)[C@@H]1CC[C@]2(COC(C)=O)CC[C@]3(C)[C@H](CC[C@@H]4[C@@]5(C)CC[C@H](O)C(C)(COC(C)=O)[C@@H]5CC[C@]43C)[C@@H]12 (stereo partly drawn) [Compound 43e] | 16 µM | 16 µM | –
23 | C=C(C)[C@@H]1CC[C@]2(COC(C)=O)CC[C@]3(C)[C@H](CC[C@@H]4[C@@]5(C)CCC(=O)C(C)(COC(C)=O)[C@@H]5CC[C@]43C)[C@@H]12 (stereo partly drawn) [Compound 38] | 18 µM | 31 µM | –
24 | C=C(C)[C@@H]1CC[C@]2(COC(C)=O)CC[C@]3(C)[C@H](CC[C@@H]4[C@@]5(C)CCC(NC(C)=O)C(C)(COC(C)=O)[C@@H]5CC[C@]43C)[C@@H]12 (stereo partly drawn) [Compound 25] | 36 µM | 38 µM | –
25 | C=C(C=O)[C@@H]1CC[C@]2(COC(C)=O)CC[C@]3(C)[C@H](CC[C@@H]4[C@@]5(C)CCC(=O)C(C)(COC(C)=O)[C@@H]5CC[C@]43C)[C@@H]12 (stereo partly drawn) [Compound 49a] | 5 µM | 9 µM | IC50 (LN-229 (glioblastoma); [6]): 15 µM; IC50 (A-375 (melanoma); [7]): 5 µM; IC50 (MCF-7 (breast carcinoma); [8]): 4 µM; IC50 (HT-29 (colon carcinoma); [9]): 5 µM
